Data from patent US11583516B2, “Dash inhibitors, and uses related thereto” (Trustees of Tufts College, priority 2016, dated 2023).
Where two headings read alike, the source gives them in different places. One block for each compound: values may come before it.

What was measured:
PGE2 = assay: Peritoneal PGE2 levels after dosing; format: in vivo; conditions: even at substantially higher doses than Val-boroPro
MB49 tumor = assay: MB49 efficacy studies; format: in vivo, C57BL/6 mice
[1] = in comparison to Val-boroPro
[2] = MTD (survival) of ARI-4268; format: in vivo; conditions: without PGE2 inhibitor, compared with Val-boroPro
CT26 cells = assay: CT26 cell viability; format: cell-based
rhabdomyosarcoma = conditions: established rhabdomyosarcoma, preclinical; cited from earlier work
RS4;11 cells = assay: Cell line drug sensitivity (CellTiter-Glo); format: cell-based
TC-71 cells = assay: Cell line drug sensitivity (CellTiter-Glo); format: cell-based
Experimental: (§1) SET-2, RS4;11, and SKM-1 cells were purchased from DSMZ. HL-60, MV4;11, OCI-AML2, NB4, MOLM-13, NOMO-1, DAOY, HEL, IMR-5, K562, Kasumi-1, ONS-76, RDES-1, and TC-71 cells were a gift from Alex Kentsis and verified using STR genotyping (Genetica). […] MCF-7, Jurkat, THP-1, U937, HL-60, MV4;11, OCI-AML2, NB4, MOLM-13, NOMO-1, HEL, K562, SET-2, RS4;11, SKM-1 and Kasumi-1 were grown in RPMI-1640 medium with 10% FBS. All cells were grown at 37° C. in a 5% CO2 incubator. Cell lines were tested for mycoplasma using the MycoAlert Mycoplasma Detection Kit (Lonza).
(§2) Cells were plated (2000 cells/well) in white, 384-well clear bottom plates using an EL406 Microplate Washer/Dispenser (BioTek) in 25 μL final volume of media. Compounds were added using a pintool (CyBio) and cells were incubated for 48 h at 37° C. Assay plates were then removed from the incubator and allowed to equilibrate to room temperature on the bench top before addition of 10 μL of CellTiter-Glo reagent (Promega) according to the manufacturer's instructions. Assay plates were shaken on an orbital shaker for 2 minutes and incubated at room temperature on the bench top for 10 minutes. Luminescence was then read using a Cytation 5 Cell Imaging Multi-Mode Reader (BioTek). (FIG. 6)

MOLM-13 cells = assay: Cell line drug sensitivity (CellTiter-Glo); format: cell-based
Experimental: as §1, §2

HT-1080 cells = assay: Cell line drug sensitivity (CellTiter-Glo); format: cell-based
Experimental: as §1, §2

NOMO-1 cells = assay: Cell line drug sensitivity (CellTiter-Glo); format: cell-based
Experimental: as §1, §2

Jurkat cells = assay: Cell line drug sensitivity (CellTiter-Glo); format: cell-based; conditions: 48 h
Experimental: as §1, §2

U937 cells = assay: Cell line drug sensitivity (CellTiter-Glo); format: cell-based
Experimental: as §1, §2

SET-2 cells = assay: Cell line drug sensitivity (CellTiter-Glo); format: cell-based
Experimental: as §1, §2

SKM-1 cells = assay: Cell line drug sensitivity (CellTiter-Glo); format: cell-based
Experimental: as §1, §2

RDES-1 cells = assay: Cell line drug sensitivity (CellTiter-Glo); format: cell-based; conditions: 48 h
Experimental: as §1, §2

DAOY cells = assay: Cell line drug sensitivity (CellTiter-Glo); format: cell-based; conditions: 48 h
Experimental: as §1, §2

K562 cells = assay: Cell line drug sensitivity (CellTiter-Glo); format: cell-based
Experimental: as §1, §2

MCF7 cells = assay: Cell line drug sensitivity (CellTiter-Glo); format: cell-based
Experimental: as §1, §2

HL-60 cells = assay: Cell line drug sensitivity (CellTiter-Glo); format: cell-based
Experimental: as §1, §2

HEL cells = assay: Cell line drug sensitivity (CellTiter-Glo); format: cell-based
Experimental: as §1, §2

THP-1 cells = assay: Cell line drug sensitivity (CellTiter-Glo); format: cell-based
Experimental: as §1, §2

KG-1 cells = assay: Cell line drug sensitivity (CellTiter-Glo); format: cell-based
Experimental: as §1, §2

OCI-AML3 cells = assay: Cell line drug sensitivity (CellTiter-Glo); format: cell-based
Experimental: as §1, §2

ONS-76 cells = assay: Cell line drug sensitivity (CellTiter-Glo); format: cell-based
Experimental: as §1, §2

Kasumi-1 cells = assay: Cell line drug sensitivity (CellTiter-Glo); format: cell-based
Experimental: as §1, §2

IMR-5 cells = assay: Cell line drug sensitivity (CellTiter-Glo); format: cell-based
Experimental: as §1, §2

G-CSF = assay: Serum cytokine induction in mice (G-CSF screen); format: in vivo, BALB/c mice
Text: No. MKC00B) • IL-18 (R&D Systems, Cat. […] Systems, Cat. No. […])

AML cell lines = assay: AML cell line sensitivity, summary over the panel; format: cell-based; conditions: all of these lines
Experimental: as §1, §2

NB4 cells = assay: Cell line drug sensitivity (CellTiter-Glo); format: cell-based; conditions: Homo sapiens, NB-4, 48 h
MV4;11 cells = assay: Cell line drug sensitivity (CellTiter-Glo); format: cell-based; conditions: Homo sapiens, MV4-11, 48 h

EC50 (CT26 cells): > 1000 µM
IC50 (RS4;11 cells; RS4;11, AML/B-ALL, 48 h, read-out: IC50): 0.096 µM
IC50 (MOLM-13 cells; MOLM-13, AML M5, 48 h, read-out: IC50): 0.028 µM
IC50 (HT-1080 cells; HT-1080, Fibrosarcoma, 48 h, read-out: IC50): > 60 µM
IC50 (Jurkat cells; T-ALL, read-out: IC50): > 60 µM
IC50 (U937 cells; U937, AML/histiocytic lymphoma M5, 48 h, read-out: IC50): > 60 µM
IC50 (SKM-1 cells; SKM-1, AML M5, 48 h, read-out: IC50): 0.007 µM
IC50 (K562 cells; K562, CML/Erythroleukemia, 48 h, read-out: IC50): > 60 µM
IC50 (MCF7 cells; MCF7, Breast, 48 h, read-out: IC50): > 60 µM
IC50 (HL-60 cells; HL-60, AML M2, 48 h, read-out: IC50): 0.016 µM
IC50 (THP-1 cells; THP-1, AML M5, 48 h, read-out: IC50): 0.023 µM
IC50 (OCI-AML3 cells; OCI-AML3, AML M4, 48 h, read-out: IC50): 0.019 µM
Structure (SMILES): CC(C)(C)[C@H](N)C(=O)N1CCC[C@H]1B(O)O [ARI-4175, t-butylglycine-boroProline]
Anti-tumor activity (rhabdomyosarcoma): significant immune-dependent anti-tumor activity
IC50 (TC-71 cells; TC-71, Ewing's sarcoma, 48 h, read-out: IC50): > 60 µM
IC50 (NOMO-1 cells; NOMO-1, AML M5, 48 h, read-out: IC50): 0.03 µM
IC50 (SET-2 cells; SET-2, AML/MPN, 48 h, read-out: IC50): 0.002 µM
IC50 (RDES-1 cells; RDES-1, Ewing's sarcoma, read-out: IC50): > 60 µM
IC50 (DAOY cells; DAOY, Medulloblastoma, read-out: IC50): > 60 µM
IC50 (HEL cells; AML/Erythroleukemis M6, 48 h, read-out: IC50): > 60 µM
IC50 (KG-1 cells; KG-1, AML M0, 48 h, read-out: IC50): 0.035 µM
IC50 (ONS-76 cells; ONS-76, Medulloblastoma, 48 h, read-out: IC50): > 60 µM
IC50 (Kasumi-1 cells; Kasumi-1, AML M2, 48 h, read-out: IC50): > 60 µM
IC50 (IMR-5 cells; IMR-5, Neuroblastoma, 48 h, read-out: IC50): > 60 µM
Average [G-CSF] at 6 hrs (G-CSF; 20 μg/animal PO): 19000 pg/mL
Average [G-CSF] at 6 hrs (G-CSF; 20 μg/animal SC): 65000 pg/mL

EC50 (CT26 cells; Mus musculus, CT26): 0.036 µM
Structure (SMILES): CC(C)C[C@H](NC(=O)[C@H](Cc1ccccc1)NC(=O)c1cnccn1)B(O)O [Bortezomib]

EC50 (CT26 cells): > 1000 µM
Structure (SMILES): N[C@@H](CCC(=O)O)C(=O)N1CCC[C@H]1B(O)O [Glu-boroPro]
Average [G-CSF] at 6 hrs (G-CSF; 20 μg/animal PO): 340 pg/mL
Average [G-CSF] at 6 hrs (G-CSF; 200 μg/animal PO): 160 pg/mL
Average [G-CSF] at 6 hrs (G-CSF; 200 μg/animal SC): 210 pg/mL
Average [G-CSF] at 6 hrs (G-CSF; 2000 μg/animal PO): 2300 pg/mL
Average [G-CSF] at 6 hrs (G-CSF; 2000 μg/animal SC): 16000 pg/mL

EC50 (CT26 cells): > 1000 µM
Structure (SMILES): C[C@H](N)C(=S)N1CCC[C@H]1B(O)O [ARI-2243]
Average [G-CSF] at 6 hrs (G-CSF; 20 μg/animal PO): 330 pg/mL
Average [G-CSF] at 6 hrs (G-CSF; 50 μg/animal IP): 2100 pg/mL
Average [G-CSF] at 6 hrs (G-CSF; 100 μg/animal IP): 2400 pg/mL
Average [G-CSF] at 6 hrs (G-CSF; 300 μg/animal IP): 4400 pg/mL

EC50 (CT26 cells): > 1000 µM
Structure (SMILES): NC(N)=NCCC[C@H](N)C(=O)N1CCC[C@H]1B(O)O [Arg-boroPro]

The remaining lines, values behind:

Structure (SMILES): CC(C)(F)[C@H](N)C(=O)N1CCC[C@H]1B(O)O (relative stereo) [ARI-4268]
Peritoneal PGE2 levels (PGE2): does not induce peritoneal PGE2 levels to the same extent as Val-boroPro
Antitumor activity (MB49 tumor; MB49 model, truncated dosing schedules): displays antitumor activity in the MB49 mouse tumor model at doses indicating improved therapeutic index
Oral activity [1]: good oral activity—on par with highly orally active Val-boroPro
MTD (survival) [2]: dramatically increased MTD (survival) without the need for a PGE2 inhibitor

Structure (SMILES): CC1([C@H](N)C(=O)N2CCC[C@H]2B(O)O)CCCCC1 (relative stereo) [ARI-4175CH]
IC50 values over the sensitive AML cell lines (AML cell lines): low (single digit) nanomolar
IC50 (NB4 cells): 0.003 µM
EC50 (CT26 cells; Mus musculus, CT26): > 1000 µM
IC50 (RS4;11 cells; Homo sapiens, RS4-11, 48 h): 0.013 µM
IC50 (MV4;11 cells): 0.003 µM
IC50 (TC-71 cells; TC-71, 48 h): > 60 µM
IC50 (MOLM-13 cells; Homo sapiens, MOLM-13, 48 h): 0.006 µM
IC50 (HT-1080 cells; Homo sapiens, HT-1080, 48 h): > 60 µM
IC50 (NOMO-1 cells; Homo sapiens, NOMO-1, 48 h): 0.004 µM
IC50 (Jurkat cells; Homo sapiens): > 60 µM
IC50 (U937 cells; Homo sapiens, U-937, 48 h): > 60 µM
IC50 (SET-2 cells; Homo sapiens, SET-2, 48 h): 0.001 µM
IC50 (SKM-1 cells; Homo sapiens, SKM-1, 48 h): 0.001 µM
IC50 (RDES-1 cells): > 60 µM
IC50 (DAOY cells; Homo sapiens, Daoy): > 60 µM
IC50 (K562 cells; Homo sapiens, K562, 48 h): > 60 µM
IC50 (MCF7 cells; Homo sapiens, MCF7, 48 h): > 60 µM
IC50 (HL-60 cells; Homo sapiens, HL-60, 48 h): 0.003 µM
IC50 (HEL cells; Homo sapiens, 48 h): > 60 µM
IC50 (THP-1 cells; Homo sapiens, THP-1, 48 h): 0.006 µM
IC50 (KG-1 cells; Homo sapiens, KG-1, 48 h): 0.049 µM
IC50 (OCI-AML3 cells; Homo sapiens, OCI-AML-3, 48 h): 0.003 µM
IC50 (ONS-76 cells; Homo sapiens, ONS-76, 48 h): > 60 µM
IC50 (Kasumi-1 cells; Homo sapiens, Kasumi 1, 48 h): > 60 µM
IC50 (IMR-5 cells; Homo sapiens, IMR-5, 48 h): > 60 µM

Structure (SMILES): Cc1ccc(-c2cc(C(F)(F)F)nn2-c2ccc(S(N)(=O)=O)cc2)cc1 [celecoxib]
Tumor growth rate (MB49 tumor; celecoxib alone, various concentrations): no observed differences in tumor growth rates compared to control

Structure (SMILES): N[C@H](C(=O)N1CCC[C@H]1B(O)O)C12CC3CC(CC(C3)C1)C2 (relative stereo) [ARI-5544, Gly(1-adamantyl)-boroPro]
IC50 values over the sensitive AML cell lines (AML cell lines): low (single digit) nanomolar
IC50 (NB4 cells): 0.003 µM
EC50 (CT26 cells; Mus musculus, CT26): > 100 µM
IC50 (MV4;11 cells): 0.002 µM
IC50 (TC-71 cells; TC-71, 48 h): > 60 µM
IC50 (MOLM-13 cells; Homo sapiens, MOLM-13, 48 h): 0.005 µM
IC50 (HT-1080 cells; Homo sapiens, HT-1080, 48 h): > 60 µM
IC50 (NOMO-1 cells; Homo sapiens, NOMO-1, 48 h): 0.005 µM
IC50 (Jurkat cells; Homo sapiens): > 60 µM
IC50 (U937 cells; Homo sapiens, U-937, 48 h): > 60 µM
IC50 (SET-2 cells; Homo sapiens, SET-2, 48 h): 0.0002 µM
IC50 (SKM-1 cells; Homo sapiens, SKM-1, 48 h): 0.0004 µM
IC50 (RDES-1 cells): > 60 µM
IC50 (DAOY cells; Homo sapiens, Daoy): > 60 µM
IC50 (K562 cells; Homo sapiens, K562, 48 h): > 60 µM
IC50 (MCF7 cells; Homo sapiens, MCF7, 48 h): > 60 µM
IC50 (HL-60 cells; Homo sapiens, HL-60, 48 h): 0.003 µM
IC50 (HEL cells; Homo sapiens, 48 h): > 60 µM
IC50 (THP-1 cells; Homo sapiens, THP-1, 48 h): 0.005 µM
IC50 (KG-1 cells; Homo sapiens, KG-1, 48 h): 0.005 µM
IC50 (OCI-AML3 cells; Homo sapiens, OCI-AML-3, 48 h): 0.002 µM
IC50 (ONS-76 cells; Homo sapiens, ONS-76, 48 h): > 60 µM
IC50 (Kasumi-1 cells; Homo sapiens, Kasumi 1, 48 h): > 60 µM
IC50 (IMR-5 cells; Homo sapiens, IMR-5, 48 h): > 60 µM

Structure (SMILES): N[C@@H](CC(=O)N1CCn2c(nnc2C(F)(F)F)C1)Cc1cc(F)c(F)cc1F [Sitagiptin, Sitagliptin]
Average [G-CSF] at 6 hrs (G-CSF; 200 μg/animal SC): 100 pg/mL
Average [G-CSF] at 6 hrs (G-CSF; 1000 μg/animal PO): 340 pg/mL
Average [G-CSF] at 6 hrs (G-CSF; 2000 μg/animal SC): 950 pg/mL
